Experiment [1] concerns Fp231. Kind of experiment: CNP release at […] nm, Michaelis-Menten non-linear fit. It is filed as biochemical, uncultured Paraglaciecola sp. The conditions noted are these: 0.1-4 mM substrate, 2 nM enzyme.
For experiment [2], the system named is Fp231. The experiment in a line: fucose release by HPAEC-PAD, Michaelis-Menten non-linear fit. It is filed as biochemical, uncultured Paraglaciecola sp. The following applies: 0.1-4 mM substrate, 2 nM enzyme.

Drawing on article doi:10.1101/2021.06.01.446583v1 (biorxiv, 2021), this text covers Km for two compounds.

Each structure is given as a SMILES string.

As to `C[C@@H]1O[C@@H](Oc2ccc([N+](=O)[O-])cc2Cl)[C@@H](O)[C@H](O)[C@@H]1O` [CNP-Fuc, 2-chloro-4-nitrophenyl-α-L-fucopyranoside], the Km in the experiment on Fp231 [1] was 140 ± 10 µM.
In the case of `CC(=O)N[C@H]1C(O)O[C@H](CO)[C@@H](O[C@@H]2O[C@@H](C)[C@@H](O)[C@@H](O)[C@@H]2O)[C@@H]1O` (stereo partly drawn) [Fuc(α1,4)GlcNAc], the Km in the experiment on Fp231 [2] turned out to be 660 ± 50 µM.
